What is called Ki is the equilibrium dissociation constant of an inhibitor or competing ligand from its target.

Consider 27 molecules from patent US8710065B2, “Tricyclic inhibitors of kinases” (AbbVie Inc., priority 2011, dated 2014).

T1 sequence (P30291 whole entry): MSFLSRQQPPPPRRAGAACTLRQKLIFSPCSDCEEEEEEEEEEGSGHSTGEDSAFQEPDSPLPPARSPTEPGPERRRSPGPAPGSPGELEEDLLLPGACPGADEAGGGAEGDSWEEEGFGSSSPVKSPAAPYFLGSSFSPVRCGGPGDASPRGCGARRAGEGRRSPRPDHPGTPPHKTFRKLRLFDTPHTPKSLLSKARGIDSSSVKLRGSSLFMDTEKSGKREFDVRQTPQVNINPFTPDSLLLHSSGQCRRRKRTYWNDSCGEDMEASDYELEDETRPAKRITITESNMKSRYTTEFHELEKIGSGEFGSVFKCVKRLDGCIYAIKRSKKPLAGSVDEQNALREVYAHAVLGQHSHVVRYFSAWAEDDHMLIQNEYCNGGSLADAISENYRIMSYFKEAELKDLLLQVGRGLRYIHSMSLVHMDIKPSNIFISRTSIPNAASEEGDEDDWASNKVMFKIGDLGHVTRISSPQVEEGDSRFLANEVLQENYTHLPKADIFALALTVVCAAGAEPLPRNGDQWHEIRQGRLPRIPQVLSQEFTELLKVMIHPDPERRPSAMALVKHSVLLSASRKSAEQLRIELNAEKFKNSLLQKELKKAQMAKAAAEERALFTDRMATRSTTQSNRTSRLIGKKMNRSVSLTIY

The experiment addresses T1, GST-tagged-Wee1 kinase (Homo sapiens, UniProt P30291).
T1 construct: purchased Carnabio (Carna Biosciences) 05-177
As to the kind of experiment: Wee1 time-resolved fluorescence equilibrium binding assay (displacement of Oregon Green-labeled ATP-competitive kinase probe). The following applies: read-out: Wee-1 inhibition (Ki). The gist of the method:
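Ki values derive from competitive displacement, under equilibrium, of a fast-reversible ATP-site Oregon Green kinase probe from GST-tagged Wee1, detected by time-resolved fluorescence.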
Turning to `CC(C)C(=O)N1Cc2cc(Nc3ncc4c(=O)n(-c5c(F)cccc5Cl)c5nccn5c4n3)ccc2C2(CC2)C1` [Example 265, 6-(2-chloro-6-fluorophenyl)-2-{[2′-(2-methylpropanoyl)-2′,3′-dihydro-1′H-spiro[cyclopropane-1,4′-isoquinolin]-7′-yl]amino}imidazo[1,2-a]pyrimido[5,4-e]pyrimidin-5(6H)-one], the Ki is less than 10 nM.

Turning to `CC(C)(C)C(=O)N1Cc2cc(Nc3ncc4c(=O)n(-c5c(F)cccc5Cl)c5nccn5c4n3)ccc2C2(CC2)C1` [Example 266, 6-(2-chloro-6-fluorophenyl)-2-{[2′-(2,2-dimethylpropanoyl)-2′,3′-dihydro-1′H-spiro[cyclopropane-1,4′-isoquinolin]-7′-yl]amino}imidazo[1,2-a]pyrimido[5,4-e]pyrimidin-5(6H)-one], the Ki was less than 10 nM. With `O=C(C1CCCC1)N1Cc2cc(Nc3ncc4c(=O)n(-c5c(F)cccc5Cl)c5nccn5c4n3)ccc2C2(CC2)C1` [Example 267, 6-(2-chloro-6-fluorophenyl)-2-{[2′-(cyclopentylcarbonyl)-2′,3′-dihydro-1′H-spiro[cyclopropane-1,4′-isoquinolin]-7′-yl]amino}imidazo[1,2-a]pyrimido[5,4-e]pyrimidin-5(6H)-one], the inhibitory constant (Ki) is less than 10 nM. As for `O=c1c2cnc(Nc3ccc(NCCc4c[nH]cn4)cc3)nc2n2ccnc2n1-c1ccccc1Cl` [Example 268, 6-(2-chlorophenyl)-2-[(4-{[2-(1H-imidazol-4-yl)ethyl]amino}phenyl)amino]imidazo[1,2-a]pyrimido[5,4-e]pyrimidin-5(6H)-one], the Ki was less than 10 nM.

Take `O=c1c2cnc(Nc3ccc(NCCCn4ccnc4)cc3)nc2n2ccnc2n1-c1ccccc1Cl` [Example 269, 6-(2-chlorophenyl)-2-[(4-{[3-(1H-imidazol-1-yl)propyl]amino}phenyl)amino]imidazo[1,2-a]pyrimido[5,4-e]pyrimidin-5(6H)-one]: the Ki was less than 10 nM. With `O=c1c2cnc(Nc3ccc(N4CCSCC4)cc3)nc2n2ccnc2n1-c1ccccc1Cl` [Example 270, 6-(2-chlorophenyl)-2-{[4-(thiomorpholin-4-yl)phenyl]amino}imidazo[1,2-a]pyrimido[5,4-e]pyrimidin-5(6H)-one], the Ki was less than 10 nM.

As for `CC(C)NCCN(c1ccc(Nc2ncc3c(=O)n(-c4ccccc4Cl)c4nccn4c3n2)cc1)C(C)C` [Example 271, 6-(2-chlorophenyl)-2-[(4-{propan-2-yl[2-(propan-2-ylamino)ethyl]amino}phenyl)amino]imidazo[1,2-a]pyrimido[5,4-e]pyrimidin-5(6H)-one], the Ki is less than 10 nM. Then `NC(=O)C1CCCN(c2ccc(Nc3ncc4c(=O)n(-c5ccccc5Cl)c5nccn5c4n3)cc2)C1` (stereo not drawn) [Example 272, 1-(4-{[6-(2-chlorophenyl)-5-oxo-5,6-dihydroimidazo[1,2-a]pyrimido[5,4-e]pyrimidin-2-yl]amino}phenyl)piperidine-3-carboxamide], with 10 to 100 nM; and `CN1CCCC1CCNc1ccc(Nc2ncc3c(=O)n(-c4c(Cl)cccc4Cl)c4nccn4c3n2)cc1` (stereo not drawn) [Example 273, 6-(2,6-dichlorophenyl)-2-[(4-{[2-(1-methylpyrrolidin-2-yl)ethyl]amino}phenyl)amino]imidazo[1,2-a]pyrimido[5,4-e]pyrimidin-5(6H)-one], with less than 10 nM; and `CC(C)C(=O)N1Cc2cc(Nc3ncc4c(=O)n(-c5c(Cl)cccc5Cl)c5nccn5c4n3)ccc2C2(CC2)C1` [Example 274, 6-(2,6-dichlorophenyl)-2-{[2′-(2-methylpropanoyl)-2′,3′-dihydro-1′H-spiro[cyclopropane-1,4′-isoquinolin]-7′-yl]amino}imidazo[1,2-a]pyrimido[5,4-e]pyrimidin-5(6H)-one], with less than 10 nM. With `O=C(C1CC1)N1Cc2cc(Nc3ncc4c(=O)n(-c5c(Cl)cccc5Cl)c5nccn5c4n3)ccc2C2(CC2)C1` [Example 275, 2-{[2′-(cyclopropylcarbonyl)-2′,3′-dihydro-1′H-spiro[cyclopropane-1,4′-isoquinolin]-7′-yl]amino}-6-(2,6-dichlorophenyl)imidazo[1,2-a]pyrimido[5,4-e]pyrimidin-5(6H)-one], the Ki was less than 10 nM. Then `CC(C)(C)C(=O)N1Cc2cc(Nc3ncc4c(=O)n(-c5c(Cl)cccc5Cl)c5nccn5c4n3)ccc2C2(CC2)C1` [Example 276, 6-(2,6-dichlorophenyl)-2-{[2′-(2,2-dimethylpropanoyl)-2′,3′-dihydro-1′H-spiro[cyclopropane-1,4′-isoquinolin]-7′-yl]amino}imidazo[1,2-a]pyrimido[5,4-e]pyrimidin-5(6H)-one], with less than 10 nM; and `O=c1c2cnc(Nc3cnc4c(c3)CNCC4)nc2n2ccnc2n1-c1c(F)cccc1Cl` [Example 277, 6-(2-chloro-6-fluorophenyl)-2-(5,6,7,8-tetrahydro-1,6-naphthyridin-3-ylamino)imidazo[1,2-a]pyrimido[5,4-e]pyrimidin-5(6H)-one], with 10 to 100 nM.

`O=c1c2cnc(Nc3ccc4c(c3)CNCC43CC3)nc2n2ccnc2n1-c1cccc(O)c1Cl` [Example 278, 6-(2-chloro-3-hydroxyphenyl)-2-(2′,3′-dihydro-1′H-spiro[cyclopropane-1,4′-isoquinolin]-7′-ylamino)imidazo[1,2-a]pyrimido[5,4-e]pyrimidin-5(6H)-one]: the Ki was less than 10 nM. Turning to `Cc1cc(O)ccc1-n1c(=O)c2cnc(Nc3ccc4c(c3)CNCC43CC3)nc2n2ccnc12` [Example 279, 2-(2′,3′-dihydro-1′H-spiro[cyclopropane-1,4′-isoquinolin]-7′-ylamino)-6-(4-hydroxy-2-methylphenyl)imidazo[1,2-a]pyrimido[5,4-e]pyrimidin-5(6H)-one], the Ki was less than 10 nM. Then `CC1(C)CN(CC(F)F)Cc2cc(Nc3ncc4c(=O)n(-c5c(F)cccc5Cl)c5nccn5c4n3)ccc21` [Example 280, 6-(2-chloro-6-fluorophenyl)-2-{[2-(2,2-difluoroethyl)-4,4-dimethyl-1,2,3,4-tetrahydroisoquinolin-7-yl]amino}imidazo[1,2-a]pyrimido[5,4-e]pyrimidin-5(6H)-one], with 10 to 100 nM; and `CC1(C)CN(CCF)Cc2cc(Nc3ncc4c(=O)n(-c5c(F)cccc5Cl)c5nccn5c4n3)ccc21` [Example 281, 6-(2-chloro-6-fluorophenyl)-2-{[2-(2-fluoroethyl)-4,4-dimethyl-1,2,3,4-tetrahydroisoquinolin-7-yl]amino}imidazo[1,2-a]pyrimido[5,4-e]pyrimidin-5(6H)-one], with less than 10 nM; and `O=c1c2cnc(Nc3ccc(N4CCC(N5CCCCC5)CC4)cc3)nc2n2ccnc2n1-c1c(Cl)cccc1Cl` [Example 282, 2-{[4-(1,4′-bipiperidin-1′-yl)phenyl]amino}-6-(2,6-dichlorophenyl)imidazo[1,2-a]pyrimido[5,4-e]pyrimidin-5(6H)-one], with less than 10 nM. For `CN(C)[C@@H]1CCN(c2ccc(Nc3ncc4c(=O)n(-c5c(Cl)cccc5Cl)c5nccn5c4n3)cc2)C1` [Example 283, 6-(2,6-dichlorophenyl)-2-({4-[(3R)-3-(dimethylamino)pyrrolidin-1-yl]phenyl}amino)imidazo[1,2-a]pyrimido[5,4-e]pyrimidin-5(6H)-one], the Ki is less than 10 nM. Then `CN(C)CCNc1ccc(Nc2ncc3c(=O)n(-c4c(Cl)cccc4Cl)c4nccn4c3n2)cc1` [Example 284, 6-(2,6-dichlorophenyl)-2-[(4-{[2-(dimethylamino)ethyl]amino}phenyl)amino]imidazo[1,2-a]pyrimido[5,4-e]pyrimidin-5(6H)-one], with less than 10 nM; and `O=c1c2cnc(Nc3ccc4c(c3)CN(S(=O)(=O)C3CC3)CC43CC3)nc2n2ccnc2n1-c1c(Cl)cccc1Cl` [Example 285, 2-{[2′-(cyclopropylsulfonyl)-2′,3′-dihydro-1′H-spiro[cyclopropane-1,4′-isoquinolin]-7′-yl]amino}-6-(2,6-dichlorophenyl)imidazo[1,2-a]pyrimido[5,4-e]pyrimidin-5(6H)-one], with less than 10 nM; and `CC(C)S(=O)(=O)N1Cc2cc(Nc3ncc4c(=O)n(-c5c(Cl)cccc5Cl)c5nccn5c4n3)ccc2C2(CC2)C1` [Example 286, 6-(2,6-dichlorophenyl)-2-{[2′-(propan-2-ylsulfonyl)-2′,3′-dihydro-1′H-spiro[cyclopropane-1,4′-isoquinolin]-7′-yl]amino}imidazo[1,2-a]pyrimido[5,4-e]pyrimidin-5(6H)-one], with less than 10 nM.

Take `CN1CCC(c2ccc(Nc3ncc4c(=O)n(-c5c(Cl)cccc5Cl)c5nccn5c4n3)cc2)CC1` [Example 287, 6-(2,6-dichlorophenyl)-2-{[4-(1-methylpiperidin-4-yl)phenyl]amino}imidazo[1,2-a]pyrimido[5,4-e]pyrimidin-5(6H)-one]: the Ki is less than 10 nM.

Take `O=c1c2cnc(Nc3ccc(N4CCC5(CC4)CNC5)cc3)nc2n2ccnc2n1-c1c(Cl)cccc1Cl` [Example 288, 2-{[4-(2,7-diazaspiro[3.5]non-7-yl)phenyl]amino}-6-(2,6-dichlorophenyl)imidazo[1,2-a]pyrimido[5,4-e]pyrimidin-5(6H)-one]: the Ki was less than 10 nM. Take `O=c1c2cnc(Nc3ccc(N4CCCC4C(F)(F)F)cc3)nc2n2ccnc2n1-c1ccccc1Cl` (stereo not drawn) [Example 289, 6-(2-chlorophenyl)-2-({4-[2-(trifluoromethyl)pyrrolidin-1-yl]phenyl}amino)imidazo[1,2-a]pyrimido[5,4-e]pyrimidin-5(6H)-one]: the Ki fell in the range of 10 to 100 nM. Consider `O=c1c2cnc(Nc3ccc(OC4CCNCC4)cc3)nc2n2ccnc2n1-c1ccccc1Cl` [Example 290, 6-(2-chlorophenyl)-2-{[4-(piperidin-4-yloxy)phenyl]amino}imidazo[1,2-a]pyrimido[5,4-e]pyrimidin-5(6H)-one], for which the Ki was less than 10 nM.

As for `O=c1c2cnc(Nc3ccc(CC4CCNCC4)cc3)nc2n2ccnc2n1-c1ccccc1Cl` [Example 291, 6-(2-chlorophenyl)-2-{[4-(piperidin-4-ylmethyl)phenyl]amino}imidazo[1,2-a]pyrimido[5,4-e]pyrimidin-5(6H)-one], the Ki is less than 10 nM.
